Results: paper PMC9297786 (Molecular Oncology, 2022)
Structures can show the parent of a compound that is named as a salt.

These compounds were tested on K562 (assay: cells). Conditions: 48 h; inhibitor.
Parameters: MTT cell growth inhibition assay, absorbance at 490 nm
Protocol: Exponential‐phase cells were seeded into 96‐well plates at a density of 2 × 10^4 cells per well in complete medium. After 24 h, cells were treated with drugs at indicated concentrations and incubated for 48 h. Fresh medium containing 20 μL MTT solution (5 mg·mL^−1) was then added to each well. Then plates were incubated for another 4 h at 37 °C. After removing the medium, 150 μL DMSO was added to each well. The absorbance was recorded at 490 nm in the microplate reader and the inhibition ratio (I%) was calculated. The cell growth assay was conducted as described previously. K562 cells were cultured in IMDM containing 10% fetal bovine serum, 100 U·mL^−1 penicillin and 100 U·mL^−1 streptomycin. […] MEG‐01 cells were cultured in DMEM containing 10% fetal bovine serum, 100 U·mL^−1 penicillin and 100 U·mL^−1 streptomycin. […] Cells were grown at 37 °C in a humidified atmosphere with 5% CO2. […] To identify an EPHB4‐specific inhibitor with a potential of rapid translation into clinic, a pool of clinically approved TKIs and compounds was screened in this study (Fig. S2 and Table S4).

Row | SMILES | Inhibition rate (%, 10 μM)
1 | CN1CC[C@]23c4c5ccc(O)c4O[C@H]2[C@@H](O)C=C[C@H]3[C@H]1C5 [morphine] | -46.72%

Same assay, conditions: Homo sapiens, K562, 48 h, read-out: Inhibition rate (%, 10 μM)

Row | SMILES | inhibition at 10 µM
2 | Nc1nc2c(ncn2COCCO)c(=O)[nH]1 [acyclovir] | -42.6%
3 | CN(C)C/C=C/C(=O)Nc1cc2c(Nc3ccc(F)c(Cl)c3)ncnc2cc1O[C@H]1CCOC1 [afatinib] | 78.6%
4 | COc1cc2nc(N(C)CCCNC(=O)C3CCCO3)nc(N)c2cc1OC (stereo not shown) [alfuzosin] | -37.2%
5 | NC12CC3CC(CC(C3)C1)C2 [amantadine] | -58.8%
6 | CCOC(=O)C1=C(COCCN)NC(C)=C(C(=O)OC)C1c1ccccc1Cl (stereo not shown) [amlodipine] | -59.8%
7 | COc1ccc(C[C@H]2COC(=O)[C@@H]2Cc2ccc(O[C@@H]3O[C@H](CO)[C@@H](O)[C@H](O)[C@H]3O)c(OC)c2)cc1OC [arctiin] | -62.6%
8 | C=C1C(=O)O[C@@]23[C@H]1CC[C@@H](C)[C@@H]2CC[C@@]1(C)O[C@@H]31 [arteannuin b] | -8.46%
9 | C[C@@H]1CC[C@H]2[C@@H](C)C(=O)O[C@@H]3O[C@@]4(C)CC[C@@H]1[C@]32OO4 [artemisinin] | -161%
10 | CN1CCCC(n2nc(Cc3ccc(Cl)cc3)c3ccccc3c2=O)CC1 (stereo not shown) [azelastine] | -74.3%
11 | O=C(O)[C@H]1O[C@@H](Oc2cc3oc(-c4ccccc4)cc(=O)c3c(O)c2O)[C@H](O)[C@@H](O)[C@@H]1O [baicalin] | -31%
12 | CN(C)C(=O)Oc1cc(OC(=O)N(C)C)cc(C(O)CNC(C)(C)C)c1 (stereo not shown) [bambuterol] | -43.1%
13 | COc1ccc2cc3[n+](cc2c1OC)CCc1cc2c(cc1-3)OCO2 [berberine] | 49.8%
14 | COC(=O)CCc1ccc(OCC(O)CNC(C)C)cc1 (stereo not shown) [brevibloc] | -12.6%
15 | CC(NC(C)(C)C)C(=O)c1cccc(Cl)c1 (stereo not shown) [bupropion] | -48.5%
16 | COc1cc2nccc(Oc3ccc(NC(=O)C4(C(=O)Nc5ccc(F)cc5)CC4)cc3)c2cc1OC [cabozantinib] | 90.1%
17 | CCOc1nc2cccc(C(=O)O)c2n1Cc1ccc(-c2ccccc2-c2nnn[nH]2)cc1 [candesartan] | -49.7%
18 | CN(C)CCC(c1ccc(Cl)cc1)c1ccccn1 (stereo not shown) [chlorpheniramine] | -42.9%
19 | O=C(O)c1cn(C2CC2)c2cc(N3CCNCC3)c(F)cc2c1=O [ciprofloxacin] | -3.17%
20 | CC(C)NCC(O)c1ccccc1Cl (stereo not shown) [clorprenaline] | -36.2%
21 | COc1ccc2c3c1O[C@H]1[C@@H](O)C=C[C@H]4[C@@H](C2)N(C)CC[C@@]341 [codeine] | -64%
22 | C[C@H]1COC2=C1C(=O)C(=O)c1c2ccc2c1CCCC2(C)C [cryptotanshinone] | -72.9%
23 | C[C@@H]1C(=O)O[C@H](C)[C@H]1C[C@@H](O)[C@](C)(O)[C@H]1CC[C@@]2(O)C3=CC(=O)[C@@H]4C[C@@H](O)[C@@H](O)C[C@]4(C)[C@H]3CC[C@]12C [cyasterone] | -50.6%
24 | CN1CCC(=C2c3ccccc3C=Cc3ccccc32)CC1 [cyproheptadine] | -38.4%
25 | COc1ccc2c(c1OC)CN1CCc3cc4c(cc3C1=C2)OCO4 [dihydroberberine] | 30.6%

Row | SMILES | inhibition at 10 µM
26 | CN(C)CCOC(c1ccccc1)c1ccccc1 [diphenhydramine] | -37.9%
27 | O=c1[nH]c2ccccc2n1CCCN1CCC(n2c(=O)[nH]c3cc(Cl)ccc32)CC1 [domperidone] | -38.6%
28 | NCCc1ccc(O)c(O)c1 [dopamine] | -62.3%
29 | COc1cc2nc(N3CCN(C(=O)C4COc5ccccc5O4)CC3)nc(N)c2cc1OC (stereo not shown) [doxazosin] | -84.5%
30 | CN(C)CCC=C1c2ccccc2COc2ccccc21 [doxepin] | -54.9%
31 | Cc1cc(O)c2c(c1)C(=O)c1cc(O)cc(O)c1C2=O [emodin] | 6.9%
32 | CN[C@@H](C)[C@H](O)c1ccccc1 [ephedrine hydrochloride] | -29%
33 | C#Cc1cccc(Nc2ncnc3cc(OCCOC)c(OCCOC)cc23)c1 [erlotinib] | 3.52%
34 | CC(Cc1ccc(O)cc1)NCC(O)c1cc(O)cc(O)c1 (stereo not shown) [fenoterol] | -62%
35 | CC(=O)Oc1ccc2c3c1O[C@H]1[C@@H](OC(C)=O)C=C[C@H]4[C@@H](C2)N(C)CC[C@@]341 [heroin] | -30.2%
36 | COC(=O)C[C@](O)(CCCC(C)(C)O)C(=O)O[C@@H]1C(OC)=C[C@]23CCCN2CCc2cc4c(cc2[C@H]13)OCO4 [homoharringtonine] | 68.7%
37 | CC(C)=CCOc1c2occc2cc2ccc(=O)oc12 [imperatorin] | -7.73%
38 | CC(C)(C)NC(=O)[C@@H]1CN(Cc2cccnc2)CCN1C[C@@H](O)C[C@@H](Cc1ccccc1)C(=O)N[C@H]1c2ccccc2C[C@H]1O [indinavir] | -52.2%
39 | CCCCC1=NC2(CCCC2)C(=O)N1Cc1ccc(-c2ccccc2-c2nnn[nH]2)cc1 [irbesartan] | -56.4%
40 | CC(C)=CCOc1c2ccoc2cc2oc(=O)ccc12 [isoimperatorin] | -85.9%
41 | O=C(/C=C/c1ccc(O)cc1)c1ccc(O)cc1O [isoliquiritigenin] | -123%
42 | CS(=O)(=O)CCNCc1ccc(-c2ccc3ncnc(Nc4ccc(OCc5cccc(F)c5)c(Cl)c4)c3c2)o1 [lapatinib] | 98.8%
43 | CCN(CC)CC(=O)Nc1c(C)cccc1C [lidocaine] | -38.5%
44 | CCCCc1nc(Cl)c(CO)n1Cc1ccc(-c2ccccc2-c2nnn[nH]2)cc1 [losartan] | -72.9%
45 | Cc1nnc(C(C)C)n1[C@@H]1C[C@H]2CC[C@@H](C1)N2CC[C@H](NC(=O)C1CCC(F)(F)CC1)c1ccccc1 [maraviroc] | -56.3%
46 | CC(=O)Oc1c(C)cc(OCC(O)CNC(C)C)c(C)c1C (stereo not shown) [metipranolol] | -26.8%
47 | CN(c1nccc(=O)[nH]1)C1CCN(c2nc3ccccc3n2Cc2ccc(F)cc2)CC1 [mizolastine] | -89.1%
48 | COc1ccc([C@@H]2CC(=O)c3c(O)cc(O[C@@H]4O[C@H](CO)[C@@H](O)[C@H](O)[C@H]4O[C@@H]4O[C@@H](C)[C@H](O)[C@@H](O)[C@H]4O)cc3O2)cc1O [neohesperidin] | -49.4%
49 | Cc1ccnc2c1NC(=O)c1cccnc1N2C1CC1 [nevirapine] | -47%

Row | SMILES | inhibition at 10 µM
50 | COC(=O)C1=C(C)NC(C)=C(C(=O)OCCN(C)Cc2ccccc2)C1c1cccc([N+](=O)[O-])c1 (stereo not shown) [nicardipine] | -74.2%
51 | COC(=O)C1=C(C)NC(C)=C(C(=O)OC)C1c1ccccc1[N+](=O)[O-] [nifedipine] | 6.88%
52 | Cc1cn(-c2cc(NC(=O)c3ccc(C)c(Nc4nccc(-c5cccnc5)n4)c3)cc(C(F)(F)F)c2)cn1 [nilotinib] | 71.7%
53 | COCCOC(=O)C1=C(C)NC(C)=C(C(=O)OC(C)C)C1c1cccc([N+](=O)[O-])c1 (stereo not shown) [nimodipine] | -69.7%
54 | CCOC(=O)C1=C(C)NC(C)=C(C(=O)OC)C1c1cccc([N+](=O)[O-])c1 (stereo not shown) [nitrendipine] | -26.4%
55 | Cc1cc2c(s1)Nc1ccccc1N=C2N1CCN(C)CC1 [olanzapine] | -53.5%
56 | CCCc1nc(C(C)(C)O)c(C(=O)O)n1Cc1ccc(-c2ccccc2-c2nnn[nH]2)cc1 [olmesartan] | -34.8%
57 | CCOC(=O)C1=C[C@@H](OC(CC)CC)[C@H](NC(C)=O)[C@@H](N)C1 [oseltamivir] | -47.6%
58 | COc1ccc2ccc(=O)oc2c1CC=C(C)C [osthole] | -21.2%
59 | Cc1ccc(Nc2nccc(N(C)c3ccc4c(C)n(C)nc4c3)n2)cc1S(N)(=O)=O [pazopanib] | 76.2%
60 | CCOC(=O)C1(c2ccccc2)CCN(C)CC1 [pethidine] | -43.7%
61 | Cc1ccc(N(CC2=NCCN2)c2cccc(O)c2)cc1 [phentolamine] | -43.1%
62 | CC(=O)Nc1ccc(OCC(O)CNC(C)C)cc1 (stereo not shown) [practolol] | -62.1%
63 | CC(C)NC(=N)NC(=N)Nc1ccc(Cl)cc1 [proguanil] | -7.92%
64 | O=c1ccc2cc3ccoc3cc2o1 [psoralen] | -51.5%
65 | O=c1c(O)c(-c2ccc(O)c(O)c2)oc2cc(O)cc(O)c12 [quercetin] | -58.4%
66 | OCCOCCN1CCN(C2=Nc3ccccc3Sc3ccccc32)CC1 [quetiapine] | -46.2%
67 | CNC(=O)c1cc(Oc2ccc(NC(=O)Nc3ccc(Cl)c(C(F)(F)F)c3)c(F)c2)ccn1 [regorafenib] | 8.49%
68 | CC[C@H]1CN2CC[C@]3(C(=O)Nc4ccccc43)[C@@H]2C[C@@H]1/C(=C\OC)C(=O)OC [rhynchophylline] | -47.3%
69 | CC(C)(C)NCC(O)c1ccc(O)c(CO)c1 (stereo not shown) [salbutamol] | -65.8%
70 | OCc1cc(C(O)CNCCCCCCOCCCCc2ccccc2)ccc1O (stereo not shown) [salmeterol] | -72.7%
71 | O=C(/C=C/c1ccc(O)c(O)c1/C=C/c1ccc(O)c(O)c1)O[C@H](Cc1ccc(O)c(O)c1)C(=O)O [salvianolic acid A] | -32.3%
72 | O=C(/C=C/c1ccc(O)c2c1[C@H](C(=O)O[C@H](Cc1ccc(O)c(O)c1)C(=O)O)[C@@H](c1ccc(O)c(O)c1)O2)O[C@H](Cc1ccc(O)c(O)c1)C(=O)O [salvianolic acid B] | -40.8%

Same assay, conditions: Homo sapiens, K562, 48 h; read-out: Inhibition rate (%, 10 μM)

Row | SMILES | inhibition at 10 µM
73 | COc1cc2c(cc1OC)[C@@]13CCN4CC5=CCO[C@H]6CC(=O)N2[C@H]1[C@H]6[C@H]5C[C@H]43 [brucine] | -63.5%
